In paper PMC11284088, “Synthesis and biochemical characterization of naphthoquinone derivatives targeting bacterial histidine kinases” (The Journal of Antibiotics, 2024):
Entries after “also recorded” stand apart in the source; their conditions may differ. Where two headings read alike, the source gives them in different places.

Key:
iseA (formerly yoeB) = test: RT-qPCR of iseA expression in B. subtilis cells; type: cell-based, B. subtilis 168; set-up: key to RT-qPCR: RT-qPCR + iseA gene expression was induced in B. subtilis 168; − no effect; conditions: for RT-qPCR: summary class, iseA gene expression in B. subtilis 168
Procedure: In brief, the cells were aerated and grown to an optical density at 660 nm of 0.3–0.4 at 37 °C. After the addition of DMSO or naphthoquinone derivatives, the cultures were further incubated for 5 min, cooled on ice for 1 min, and then harvested by centrifugation (2300 × g, 10 min, 4 °C). The cells were resuspended in 800 µl of RNA Lysis Buffer (SV Total RNA Isolation System, Z3100, Promega), transferred to a screw-capped tube containing 400 mg of glass beads (GB-01, TOMY), and disrupted using MicroSmash (MS-100, TOMY Medico) at 3000 rpm, 60 s ON/OFF for 6 cycles. RNA was then purified from 175 µl of the supernatant using the SV Total RNA Isolation System, followed by DNase I treatment (Turbo DNA-free^TM Kit, AM1907, Invitrogen) to remove any residual genomic DNA contamination. […] The expression levels of the genes were normalized using the 16S rRNA gene as an internal standard. Each assay was performed at least three times. Statistical analyses were conducted using Tukey’s multiple comparison test (GraphPad Prism 7).

[1] = target: T1, WalK (207-611, B. subtilis) (Bacillus subtilis, UniProt Q45614); test: Affinity selection/mass spectrometry, competition with waldiomycin; type: binding; set-up: key to AS/MS: AS/MS + competitive inhibition of the binding of waldiomycin to WalK; − increased binding of waldiomycin to WalK
T1 construct: His6 (N); made in house; host or cells: E. coli BL21(DE3)
T1 sequence (Q45614 207-611): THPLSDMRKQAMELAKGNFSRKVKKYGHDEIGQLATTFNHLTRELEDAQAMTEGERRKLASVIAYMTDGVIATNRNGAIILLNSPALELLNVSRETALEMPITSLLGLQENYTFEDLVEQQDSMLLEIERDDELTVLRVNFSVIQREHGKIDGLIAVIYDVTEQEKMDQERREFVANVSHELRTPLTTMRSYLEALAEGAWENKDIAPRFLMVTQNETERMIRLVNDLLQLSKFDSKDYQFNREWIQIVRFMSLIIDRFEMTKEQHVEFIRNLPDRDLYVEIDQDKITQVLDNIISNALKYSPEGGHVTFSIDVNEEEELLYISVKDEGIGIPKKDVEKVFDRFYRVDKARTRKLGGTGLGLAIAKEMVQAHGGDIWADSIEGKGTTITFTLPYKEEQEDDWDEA
Procedure: The affinity selection/mass spectrometry (AS/MS) is a method which can detect the binding of small compounds to proteins. This experiment was carried out following a previously established protocol (Fig. 5), with the exception of using Millipore 96-well filter plates (MSBVN1210) instead of MAHAN4510. In the experiment, 1 µM of WalK (207-611, B. subtilis, refer to Table S2) was combined and incubated with 5 µM of waldiomycin and competitor compounds in a reaction buffer. The buffer composition was as follows: 25 mM Tris-HCl (pH 8.0), 50 mM KCl, 50 mM NH4Cl, 5 mM MgCl2, 1 mM DTT, and 0.1% CHAPS. Following the incubation, the mixture was subjected to size-exclusion chromatography via centrifugation to eliminate free compounds. The protein that was eluted was then denatured by adding an equal volume of methanol/0.1% formic acid. The compounds that were subsequently released from the protein were detected using an LC/MS system. The concentrations of waldiomycin were calculated from the value of peak areas using calibration curve that covered the range of 1 nM to 1 µM (R^2 = 0.9991). The concentration of waldiomycin in the eluate of WalK and waldiomycin without competitor was 10.1 nM, and percentages to this value were calculated for other samples.

WalK = target: T2, WalK (Bacillus subtilis, UniProt Q45614); test: Inhibition of WalK autophosphorylation; type: biochemical; set-up: key to WalK: WalK + inhibitory effect against WalK; conditions: for IC50: against WalK from B. subtilis, autophosphorylation, N.I. = no inhibition; for inhibitory activity against WalK: in words; for WalK: summary class
T2 construct: His6 (N); made in house; host or cells: E. coli BL21(DE3)
T2 sequence (Q45614 207-611): as above
Procedure: Autophosphorylation of WalK was conducted at 0.5 or 1 µM in a reaction mixture comprising 50 mM Tris-HCl (pH 8.5), 100 mM KCl, 5 mM MgCl2, 100 mM NH4Cl, 5% DMSO, and 40 µM ATP. The total reaction volume was 40 µl, and the incubation lasted for 30 min at 25 °C. To terminate the reaction, 40 µl of 2 × SDS-PAGE sample buffer was added, followed by a 10-min incubation at 37 °C. Subsequently, SDS-PAGE (10% acrylamide) was performed, and the samples were subjected to Western blotting using a PVDF membrane (Bio-Rad 1620177). The primary antibody used was anti-N3-phosphohistidine antibody (clone SC56-2) (EDM Millipore Corp), and the secondary antibody was goat anti-rabbit IgG-HRP (Abcam). A 2% bovine serum albumin (Sigma-Aldrich) solution served as the blocking reagent. Signals originating from phosphorylated HKs were detected using the HRP substrate (Immobilon Western Chemiluminescent HRP substrate, Millipore) and the Multi Imager II Multi Box (Bio Tools). Signal intensities were quantified with Image Analysis Software CS Analyzer 4 (ATTO). IC50 values (50% inhibitory concentrations) were determined using Prism 7 software (GraphPad).
In the assessment of naphthoquinone derivatives, the initial screening for inhibitory activity against WalK autophosphorylation was conducted at 50 or 100 µg ml^−1. Compounds displaying inhibitory activity were further examined to ascertain their IC50 values against WalK. For the chosen compounds, inhibition against EvgS, EnvZ, PhoQ, and CpxA HKs was also assessed. These reactions involved the use of 1 µM HK, 40 µM ATP, and a 30 min incubation at 25 °C.

B. subtilis 168 strain = test: MIC, standard microtiter broth dilution; type: cell-based, Bacillus subtilis; set-up: key to MIC: MIC + antibacterial activity against Bacillus subtilis 168; conditions: for antibacterial (antimicrobial) activity against B. subtilis: in words
Procedure: The minimum inhibitory concentrations (MICs) were determined using the standard microtiter broth dilution method, as recommended by the guidelines of the Clinical Laboratory Standards Institute.

[2] = B. subtilis 168 strain grown in LB broth at 37 °C for 18 h
[3] = Bacillus subtilis, B. subtilis 168 strain grown in LB broth at 37 °C for 18 h, read-out: MIC

| Compound | IC50 (WalK; read-out: IC50) [µM] | inhibitory activity against WalK (WalK) | MIC (B. subtilis 168 strain; [2]) [µg/mL] | antibacterial (antimicrobial) activity against B. subtilis (B. subtilis 168 strain) | IC50 (WalK) | further results |
| --- | --- | --- | --- | --- | --- | --- |
| O=C1C(Cl)=C(N2CCNCC2)C(=O)c2c(O)ccc(O)c21 [2a, 2-chloro-5,8-dihydroxy-3-(piperazin-1-yl)naphthalene-1,4-dione] | 32.4 | weaker |  |  |  | RT-qPCR (iseA (formerly yoeB)): +; effect on the signal of waldiomycin ([1]; compound 30 and 100 µM, in words): reduced the signal of waldiomycin in a dose-dependent manner; signal of waldiomycin compared to only waldiomycin with WalK ([1]; compound at 100 µM, waldiomycin 5 µM, WalK 1 µM): about 10%; binding to WalK competitive with that of waldiomycin ([1]; in words): competitive; also recorded: competitively interacted with waldiomycin; WalK (WalK): + |
| O=C1C(N2CCNCC2)=CC(=O)c2c(O)cccc21 [2b, 5-hydroxy-2-(piperazin-1-yl)naphthalene-1,4-dione] | 48.4 |  | 8 | equal to waldiomycin or even stronger |  | MIC (B. subtilis 168 strain; summary class, Bacillus subtilis 168): +; expression of iseA (iseA (formerly yoeB); exponentially growing cells, subMIC or MIC levels, 5 min, relative to DMSO control): did not change; RT-qPCR (iseA (formerly yoeB)): −; increase of MS signal of the collected waldiomycin compared to only waldiomycin ([1]; compound 30 or 100 µM, waldiomycin 5 µM, WalK 1 µM): about twofold; binding to WalK competitive with that of waldiomycin ([1]; in words): not competitive; also recorded: enhanced the binding of waldiomycin to WalK; AS/MS ([1]; summary class, effect on binding of waldiomycin to WalK): −; WalK (WalK): + |
| O=C1C(Cl)=C(N2CCNCC2)C(=O)c2ccccc21 [2c, 2-chloro-3-(piperazin-1-yl)naphthalene-1,4-dione] |  | did not show any inhibitory activity; also recorded: inactive | 8 | equal to waldiomycin or even stronger | N.I. |  |
| O=C1C(N2CCNCC2)=C(Cl)C(=O)c2c1cccc2[N+](=O)[O-] [2d, 3-chloro-5-nitro-2-(piperazin-1-yl)naphthalene-1,4-dione] | 305 |  | 8 | equal to waldiomycin or even stronger |  |  |
| O=C1C(Cl)=C(NCCO)C(=O)c2c(O)ccc(O)c21 [2e, 2-chloro-5,8-dihydroxy-3-((2-hydroxyethyl)amino)naphthalene-1,4-dione] |  | did not show any inhibitory activity; also recorded: inactive | 2 | equal to waldiomycin or even stronger | N.I. |  |
| O=C1C(Cl)=C(NCCc2ccc(O)c(O)c2)C(=O)c2c(O)ccc(O)c21 [2f, 2-chloro-3-((3,4-dihydroxyphenethyl)amino)-5,8-dihydroxynaphthalene-1,4-dione] |  | did not show any inhibitory activity; also recorded: inactive | 8 | equal to waldiomycin or even stronger | N.I. |  |
| O=C1C(Cl)=C(Nc2cccc(O)c2)C(=O)c2c(O)ccc(O)c21 [2g, 2-chloro-5,8-dihydroxy-3-((3-hydroxyphenyl)amino)naphthalene-1,4-dione] | 31.7 |  | 1 | equal to waldiomycin or even stronger |  |  |
| O=C1C(Cl)=C(Nc2ccc(Cl)c(O)c2)C(=O)c2c(O)ccc(O)c21 [2i, 2-chloro-3-((4-chloro-3-hydroxyphenyl)amino)-5,8-dihydroxynaphthalene-1,4-dione] |  | did not show any inhibitory activity; also recorded: inactive |  | equal to waldiomycin or even stronger |  | MIC (B. subtilis 168 strain; B. subtilis 168 strain grown in LB broth at 37 °C for 18 h, listed as C00017): 4 µg/mL; IC50 (WalK; listed as C00017): N.I. |
| O=C1C(Nc2ccc(Cl)c(O)c2)=CC(=O)c2c(O)cccc21 [2j, 2-((4-chloro-3-hydroxyphenyl)amino)-5-hydroxynaphthalene-1,4-dione] | 75.1 |  |  | equal to waldiomycin or even stronger |  | MIC (B. subtilis 168 strain; [3]): 4 µg/mL |
| COc1ccc(NC2=C(Cl)C(=O)c3c(O)ccc(O)c3C2=O)cc1 [2k, 2-chloro-5,8-dihydroxy-3-((4-methoxyphenyl)amino)naphthalene-1,4-dione] |  | did not show any inhibitory activity; also recorded: noninhibitory; also recorded: did not inhibit WalK | >128 | no or a very weak antimicrobial activity | N.I. |  |
| O=C(O)c1cc(NC2=C(Cl)C(=O)c3c(O)ccc(O)c3C2=O)ccc1O [2m, 5-((3-chloro-5,8-dihydroxy-1,4-dioxo-1,4-dihydronaphthalen-2-yl)amino)-2-hydroxybenzoic acid] | 45 | weaker | 64 | weaker |  |  |
| O=C(O)c1cc(NC2=C(Cl)C(=O)c3c(cccc3[N+](=O)[O-])C2=O)ccc1O [2n, 5-((3-chloro-5-nitro-1,4-dioxo-1,4-dihydronaphthalen-2-yl)amino)-2-hydroxybenzoic acid] |  | did not show any inhibitory activity; also recorded: did not inhibit WalK | 128 | no or a very weak antimicrobial activity | N.I. |  |
| O=C1c2onc(-c3ccccc3)c2C(=O)c2c(O)ccc(O)c21 [3a, 5,8-dihydroxy-3-phenylnaphtho[2,3-d]isoxazole-4,9-dione] | 51 |  | 0.5 | equal to waldiomycin or even stronger |  |  |
| O=C1c2onc(-c3ccccc3)c2C(=O)c2cccc(O)c21 [3c, 8-hydroxy-3-phenylnaphtho[2,3-d]isoxazole-4,9-dione] |  | did not show any inhibitory activity |  | equal to waldiomycin or even stronger | N.I. | MIC (B. subtilis 168 strain; [3]): 0.5 µg/mL |
